The target of this assay is T1, WT human TRPM3 (Homo sapiens, UniProt Q9HCF6).
T1 construct: expressed in transfected cells; host or cells: HEK293T
T1 sequence (Q9HCF6 1-1325 isoform Q9HCF6-10): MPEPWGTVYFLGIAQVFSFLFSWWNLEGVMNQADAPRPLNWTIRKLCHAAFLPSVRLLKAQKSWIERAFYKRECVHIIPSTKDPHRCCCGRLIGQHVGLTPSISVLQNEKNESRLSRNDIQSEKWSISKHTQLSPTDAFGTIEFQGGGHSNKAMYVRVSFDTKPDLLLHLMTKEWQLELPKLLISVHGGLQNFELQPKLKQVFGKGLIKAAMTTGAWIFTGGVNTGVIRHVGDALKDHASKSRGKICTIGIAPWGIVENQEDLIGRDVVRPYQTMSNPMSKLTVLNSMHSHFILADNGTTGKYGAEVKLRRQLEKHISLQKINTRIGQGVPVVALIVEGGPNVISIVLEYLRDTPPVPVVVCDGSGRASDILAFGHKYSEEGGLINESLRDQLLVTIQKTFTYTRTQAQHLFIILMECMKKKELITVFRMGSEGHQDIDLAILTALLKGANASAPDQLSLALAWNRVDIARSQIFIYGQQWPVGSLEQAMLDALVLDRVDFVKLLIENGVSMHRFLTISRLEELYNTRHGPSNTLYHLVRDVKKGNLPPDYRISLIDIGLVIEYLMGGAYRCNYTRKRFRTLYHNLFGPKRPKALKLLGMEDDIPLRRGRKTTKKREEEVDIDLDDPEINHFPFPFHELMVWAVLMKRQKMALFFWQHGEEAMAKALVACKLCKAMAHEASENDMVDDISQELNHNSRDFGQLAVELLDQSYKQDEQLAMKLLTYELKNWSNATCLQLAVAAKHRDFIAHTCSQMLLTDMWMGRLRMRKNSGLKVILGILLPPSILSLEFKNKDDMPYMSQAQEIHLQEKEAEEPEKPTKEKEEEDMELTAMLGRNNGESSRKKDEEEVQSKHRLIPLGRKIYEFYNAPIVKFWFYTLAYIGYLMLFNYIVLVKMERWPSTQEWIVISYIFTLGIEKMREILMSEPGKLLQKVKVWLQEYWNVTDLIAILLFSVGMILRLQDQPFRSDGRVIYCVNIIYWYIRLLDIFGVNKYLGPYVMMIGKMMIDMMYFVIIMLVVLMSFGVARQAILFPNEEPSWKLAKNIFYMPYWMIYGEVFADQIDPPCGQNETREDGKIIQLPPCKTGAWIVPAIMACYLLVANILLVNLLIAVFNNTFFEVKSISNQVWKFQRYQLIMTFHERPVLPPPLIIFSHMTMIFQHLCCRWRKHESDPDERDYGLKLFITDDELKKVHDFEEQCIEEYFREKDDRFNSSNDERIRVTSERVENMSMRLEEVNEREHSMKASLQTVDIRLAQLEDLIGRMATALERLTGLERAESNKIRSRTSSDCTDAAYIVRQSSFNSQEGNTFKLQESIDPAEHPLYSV
Kind of assay: Fura-2-based calcium imaging, HEK293T cells transfected with WT hTRPM3. The format is cell-based. As for the experimental part: HEK293T cells ([Graham et al., 1977]) were cultured as described previously ([Vriens et al., 2007]) and used up in passage number 14. HEK293T cells were tested for the lack of mycoplasma and transiently transfected with 2 µg of DNA using TransIT transfection reagent (Mirus) 36–48 hr before the measurements. In case of co-cultures a ratio of 1:1 between hTRPM3-YFP WT and mutants-YFP DNA was used.
Changes in intracellular calcium concentration were monitored using ratiometric Fura-2-based fluorimetry. Cells were loaded with 2 µM Fura-2-acetoxymethyl ester (Alexis Biochemicals) for 30 min at 37°C. Fluorescence was measured during alternating illumination at 340 and 380 nm using Eclipse Ti (Nikon) fluorescence microscopy system, and absolute calcium concentration was calculated from the ratio of the fluorescence signals at these two wavelengths (R = F340/F380) as [Ca^2+]=Km × (R-Rmin)/(Rmax-R), where Km, Rmin and Rmax were estimated from in vitro calibration experiments with known calcium concentrations. The bath solution contained (in mM) 138 NaCl, 5.4 KCl, 2 CaCl2, 2 MgCl2, 10 glucose, and 10 HEPES, pH 7.4. […] The chemical ligands were dissolved in bath solution from a stock diluted in DMSO.

The values that follow come from publication PMC7253177, “Gain of channel function and modified gating properties in TRPM3 mutants causing intellectual disability and epilepsy” (eLife, 2020).

For the compound `CCC1(c2ccccc2)C(=O)NCNC1=O` [primidone], for the setting “primidone 100 µM, isosakuranetin 50 µM”, the “Effect on basal [Ca2+]i” value was “reduced [Ca^2+]i”.
With pregnenolone sulfate [PS], the “PS concentration required to induce a detectable calcium response” value came out at 10 µM.
